Values joined by “and” are separate entries in the source; they are usually repeats but may differ in a detail not shown here. Equal values may be shown once. Inconclusive results and toxic doses are left out. Rule as the data show it: active = T/C of 150% or more; inactive = T/C below 125%.
System: L1210 leukemia ip in BDF1 mice, survival T/C
Assay: NCI In Vivo Anticancer Drug Screen. Data for tumor model L1210 Leukemia (intraperitoneal) in B6D2F1 (BDF1) mice
Conditions: endpoint: mean survival time, higher = longer survival
How it was run: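 Ratio derived from survival: compound-dosed mice over vehicle-dosed mice, all bearing a transplantable tumor.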

[1] = dose: 100.0 mg/kg/injection, schedule: Q01DX009 (ip), vehicle: gum acacia
[2] = dose: 400.0 mg/kg/injection, schedule: Q01DX009 (ip), vehicle: gum acacia
[3] = dose: 100.0 mg/kg/injection, schedule: Q04DX002 (ip), vehicle: Klucel (hydroxypropylcellulose) (HPC)
[4] = dose: 200.0 mg/kg/injection, schedule: Q04DX002 (ip), vehicle: Klucel (hydroxypropylcellulose) (HPC)
[5] = dose: 400.0 mg/kg/injection, schedule: Q04DX002 (ip), vehicle: Klucel (hydroxypropylcellulose) (HPC)
[6] = dose: 100.0 mg/kg/injection, schedule: Q01DX001 (ip), vehicle: other
[7] = dose: 200.0 mg/kg/injection, schedule: Q01DX001 (ip), vehicle: other
[8] = dose: 100.0 mg/kg/injection, schedule: Q01DX009 (ip), vehicle: saline with Tween-80
[9] = dose: 200.0 mg/kg/injection, schedule: Q01DX009 (ip), vehicle: saline with Tween-80
[10] = dose: 100.0 mg/kg/injection, schedule: Q01DX009 (ip), vehicle: saline
[11] = dose: 100.0 mg/kg/injection, schedule: Q04DX003 (ip), vehicle: saline
[12] = dose: 200.0 mg/kg/injection, schedule: Q01DX009 (ip), vehicle: saline
[13] = dose: 100.0 mg/kg/injection, schedule: Q01DX001 (ip), vehicle: saline
[14] = dose: 200.0 mg/kg/injection, schedule: Q01DX001 (ip), vehicle: saline
[15] = dose: 400.0 mg/kg/injection, schedule: Q01DX001 (ip), vehicle: saline

Measured: T/C

O=C(NCc1ccc(Cl)cc1)Nc1cccc(F)c1
inactive: [1] 105 % of control | dose: 200.0 mg/kg/injection, schedule: Q01DX009 (ip), vehicle: gum acacia 86 % of control | [2] 98 % of control

Cc1ccc(S(=O)(=O)Nc2ccccc2N=Cc2ccc([N+](=O)[O-])cc2[N+](=O)[O-])cc1
inactive: dose: 75.0 mg/kg/injection, schedule: Q01DX001 (ip), vehicle: carboxymethylcellulose (CMC) 97 % of control | dose: 150.0 mg/kg/injection, schedule: Q01DX001 (ip), vehicle: carboxymethylcellulose (CMC) 104 % of control | dose: 300.0 mg/kg/injection, schedule: Q01DX001 (ip), vehicle: carboxymethylcellulose (CMC) 92 % of control

Clc1cc(Cl)c2c(c1)COCO2
inactive: dose: 25.0 mg/kg/injection, schedule: Q01DX009 (ip), vehicle: Klucel (hydroxypropylcellulose) (HPC) 109 % of control | dose: 50.0 mg/kg/injection, schedule: Q01DX009 (ip), vehicle: Klucel (hydroxypropylcellulose) (HPC) 104 % of control | dose: 100.0 mg/kg/injection, schedule: Q01DX009 (ip), vehicle: Klucel (hydroxypropylcellulose) (HPC) 106 % of control | dose: 100.0 mg/kg/injection, schedule: Q04DX003 (ip), vehicle: Klucel (hydroxypropylcellulose) (HPC) 97 % of control | dose: 200.0 mg/kg/injection, schedule: Q04DX003 (ip), vehicle: Klucel (hydroxypropylcellulose) (HPC) 102 % of control | dose: 400.0 mg/kg/injection, schedule: Q04DX003 (ip), vehicle: Klucel (hydroxypropylcellulose) (HPC) 111 % of control

CC(=O)C1=C(O)C2C3c4c[nH]c5cccc(c45)CC3C(C)(C)N2C1=O (centres undefined)
inactive: dose: 0.25 mg/kg/injection, schedule: Q01DX001 (ip), vehicle: saline 101 % of control | dose: 0.5 mg/kg/injection, schedule: Q01DX001 (ip), vehicle: saline 103 % of control | dose: 1.0 mg/kg/injection, schedule: Q01DX001 (ip), vehicle: saline 101 % of control | dose: 2.0 mg/kg/injection, schedule: Q01DX001 (ip), vehicle: saline 105 % of control

CCOC(=O)CN(CC)CC(=O)OCC
inactive: dose: 75.0 mg/kg/injection, schedule: Q01DX009 (ip), vehicle: saline with Tween-80 107 % of control | dose: 100.0 mg/kg/injection, schedule: Q04DX003 (ip), vehicle: saline with Tween-80 93 % of control | dose: 150.0 mg/kg/injection, schedule: Q01DX009 (ip), vehicle: saline with Tween-80 107 % of control | dose: 200.0 mg/kg/injection, schedule: Q04DX003 (ip), vehicle: saline with Tween-80 98 % of control | dose: 300.0 mg/kg/injection, schedule: Q01DX009 (ip), vehicle: saline with Tween-80 109 % of control | dose: 400.0 mg/kg/injection, schedule: Q04DX003 (ip), vehicle: saline with Tween-80 101 % of control

CC(=O)OC1CCCC1OC(=O)c1ccc([N+](=O)[O-])cc1 (centres undefined)
inactive: dose: 100.0 mg/kg/injection, schedule: Q04DX003 (ip), vehicle: other 106 % of control | dose: 200.0 mg/kg/injection, schedule: Q04DX003 (ip), vehicle: other 96 % of control | dose: 400.0 mg/kg/injection, schedule: Q04DX003 (ip), vehicle: other 95 % of control

COc1cccc(/C(C)=C2\SC(=S)NC2=O)c1
inactive: dose: 100.0 mg/kg/injection, schedule: Q01DX001 (ip), vehicle: carboxymethylcellulose (CMC) 100 % of control | dose: 200.0 mg/kg/injection, schedule: Q01DX001 (ip), vehicle: carboxymethylcellulose (CMC) 94 % of control

O=C(N=C1SCCS1)Nc1cccc(Cl)c1
inactive: [3] 100 % of control | [4] 95 % of control | [5] 110 % of control

Cc1ncccc1CO
inactive: dose: 100.0 mg/kg/injection, schedule: Q04DX002 (ip), vehicle: gum acacia 104 % of control | dose: 200.0 mg/kg/injection, schedule: Q04DX002 (ip), vehicle: gum acacia 90 % of control | dose: 400.0 mg/kg/injection, schedule: Q04DX002 (ip), vehicle: gum acacia 87 % of control

CCCCCCCCCCCCCCCCCCCCCCCCCCCCCCCS
inactive: [6] 95 % of control | [7] 103 % of control

OCC1OC(n2c(Cl)nc3cc(Cl)c(Cl)cc32)C(O)C1O (centres undefined)
inactive: dose: 100.0 mg/kg/injection, schedule: Q01DX005 (ip), vehicle: saline 96 % of control | dose: 200.0 mg/kg/injection, schedule: Q01DX005 (ip), vehicle: saline 96 % of control

O=S1CCCCO1 (centres undefined)
inactive: dose: 37.5 mg/kg/injection, schedule: Q01DX009 (ip), vehicle: saline 96 % of control | dose: 75.0 mg/kg/injection, schedule: Q01DX001 (ip), vehicle: saline 101 % of control | dose: 75.0 mg/kg/injection, schedule: Q01DX009 (ip), vehicle: saline 91 % of control | dose: 150.0 mg/kg/injection, schedule: Q01DX001 (ip), vehicle: saline 101 % of control | dose: 150.0 mg/kg/injection, schedule: Q01DX009 (ip), vehicle: saline 96 % of control | dose: 300.0 mg/kg/injection, schedule: Q01DX001 (ip), vehicle: saline 104 % of control

O=[N+]([O-])c1ccc(Cl)c2ccccc12
inactive: dose: 12.5 mg/kg/injection, schedule: Q01DX009 (ip), vehicle: saline with Tween-80 94 % of control | dose: 25.0 mg/kg/injection, schedule: Q01DX009 (ip), vehicle: saline with Tween-80 91 % of control | dose: 50.0 mg/kg/injection, schedule: Q01DX009 (ip), vehicle: saline with Tween-80 87 % of control | [8] 91 % of control | [9] 88 % of control

Cc1ccc(Cl)cc1NC(=O)Nc1cc(C(C)C)ccc1C
inactive: [8] 93 % of control and 100 % of control | dose: 100.0 mg/kg/injection, schedule: Q04DX002 (ip), vehicle: saline with Tween-80 100 % of control and 90 % of control | [9] 93 % of control and 91 % of control | dose: 200.0 mg/kg/injection, schedule: Q04DX002 (ip), vehicle: saline with Tween-80 93 % of control and 94 % of control | dose: 400.0 mg/kg/injection, schedule: Q01DX009 (ip), vehicle: saline with Tween-80 86 % of control | dose: 400.0 mg/kg/injection, schedule: Q04DX002 (ip), vehicle: saline with Tween-80 96 % of control and 101 % of control

CN(/N=N/c1nc[nH]c1C(=O)N/N=C/c1ccc(N(CCCl)CCCl)cc1)C1CCCCC1
inactive: [6] 95 % of control | [7] 95 % of control | dose: 400.0 mg/kg/injection, schedule: Q01DX001 (ip), vehicle: other 90 % of control

O=C(Nc1cccc(C(F)(F)F)c1)c1ccc(Cl)c(Cl)c1
inactive: [1] 108 % of control | dose: 100.0 mg/kg/injection, schedule: Q04DX003 (ip), vehicle: gum acacia 100 % of control | dose: 200.0 mg/kg/injection, schedule: Q04DX003 (ip), vehicle: gum acacia 100 % of control | [2] 96 % of control | dose: 400.0 mg/kg/injection, schedule: Q04DX003 (ip), vehicle: gum acacia 95 % of control

Fc1ccc(C(Cl)Cl)cc1
inactive: [10] 102 % of control | [11] 97 % of control and 86 % of control | [12] 99 % of control | dose: 200.0 mg/kg/injection, schedule: Q04DX003 (ip), vehicle: saline 101 % of control | dose: 400.0 mg/kg/injection, schedule: Q04DX003 (ip), vehicle: saline 101 % of control and 89 % of control

CC(=O)Oc1cccc(N(C)C)c1
inactive: dose: 25.0 mg/kg/injection, schedule: Q04DX003 (ip), vehicle: saline 97 % of control | dose: 50.0 mg/kg/injection, schedule: Q04DX003 (ip), vehicle: saline 100 % of control | dose: 100.0 mg/kg/injection, schedule: Q01DX001 (ip), vehicle: acetone 98 % of control | [11] 91 % of control

Brc1ccc(/C=N/Nc2nnc(N/N=C/c3ccc(Br)cc3)c3ccccc23)cc1
inactive: dose: 50.0 mg/kg/injection, schedule: Q01DX001 (ip), vehicle: saline 93 % of control | [13] 96 % of control | [14] 102 % of control | [15] 102 % of control

COC1=NS(=O)(=O)C2(O1)c1ccccc1-c1ccccc12
inactive: [3] 96 % of control | [4] 96 % of control | [5] 116 % of control

O=C(O)C(F)(F)C(F)(F)C(F)(F)F
inactive: [13] 105 % of control | [14] 103 % of control | [15] 92 % of control

CC(C)(C(=O)O)S(=O)(=O)O
inactive: [10] 108 % of control | [12] 97 % of control | dose: 400.0 mg/kg/injection, schedule: Q01DX009 (ip), vehicle: saline 103 % of control
